Tests used:
[1] = target: High affinity nerve growth factor receptor (Homo sapiens, UniProt P04629); experiment: Inhibition of TrkA (unknown origin) using Tyr1 peptide as substrate in presence of ATP measured after 2 hrs by FRET-based Z-Lyte kinase assay
[2] = target: BDNF/NT-3 growth factors receptor (Homo sapiens, UniProt Q16620); experiment: Inhibition of TrkB (unknown origin) using Tyr1 peptide as substrate in presence of ATP measured after 2 hrs by FRET-based Z-Lyte kinase assay
BaF3 [3] = experiment: Antiproliferative activity against mouse BaF3 cells assessed as cell viability measured after 72 hrs by Micro plate reader method; type: functional, cell-based; conditions: BaF3, 72 h
BaF3 [4] = experiment: Antiproliferative activity against mouse BaF3 cells transfected with wild type CD74-NTRK1 (unknown origin) assessed as cell viability measured after 72 hrs by Micro plate reader method; conditions: BaF3, 72 h
BaF3 [5] = experiment: Antiproliferative activity against mouse BaF3 cells transfected with wild type ETV6-NTRK2 (unknown origin) assessed as cell viability measured after 72 hrs by Micro plate reader method; conditions: BaF3, 72 h
BaF3 [6] = experiment: Antiproliferative activity against mouse BaF3 cells transfected with wild type ETV6-NTRK3 (unknown origin) assessed as cell viability measured after 72 hrs by Micro plate reader method; conditions: BaF3, 72 h
BaF3 [7] = experiment: Antiproliferative activity against mouse BaF3 cells transfected with wild type CD74-NTRK1 (unknown origin) harbouring G595R mutation assessed as cell viability measured after 72 hrs by Micro plate reader method; type: functional, cell-based; conditions: BaF3, 72 h
BaF3 [8] = experiment: Antiproliferative activity against mouse BaF3 cells transfected with wild type ETV6-NTRK2 (unknown origin) harbouring G639R mutation assessed as cell viability measured after 72 hrs by Micro plate reader method; type: functional, cell-based; conditions: BaF3, 72 h
BaF3 [9] = experiment: Antiproliferative activity against mouse BaF3 cells transfected with wild type CD74-NTRK1 (unknown origin) harbouring G667C mutation assessed as cell viability measured after 72 hrs by Micro plate reader method; type: functional, cell-based; conditions: BaF3, 72 h
BaF3 [10] = experiment: Antiproliferative activity against mouse BaF3 cells transfected with wild type ETV6-NTRK3 (unknown origin) harbouring G623R mutation assessed as cell viability measured after 72 hrs by Micro plate reader method; type: functional, cell-based; conditions: BaF3, 72 h
BaF3 [11] = experiment: Antiproliferative activity against mouse BaF3 cells transfected with wild type ETV6-NTRK3 (unknown origin) harbouring G696A mutation assessed as cell viability measured after 72 hrs by Micro plate reader method; type: functional, cell-based; conditions: BaF3, 72 h

High affinity nerve growth factor receptor, sequence (P04629 whole entry): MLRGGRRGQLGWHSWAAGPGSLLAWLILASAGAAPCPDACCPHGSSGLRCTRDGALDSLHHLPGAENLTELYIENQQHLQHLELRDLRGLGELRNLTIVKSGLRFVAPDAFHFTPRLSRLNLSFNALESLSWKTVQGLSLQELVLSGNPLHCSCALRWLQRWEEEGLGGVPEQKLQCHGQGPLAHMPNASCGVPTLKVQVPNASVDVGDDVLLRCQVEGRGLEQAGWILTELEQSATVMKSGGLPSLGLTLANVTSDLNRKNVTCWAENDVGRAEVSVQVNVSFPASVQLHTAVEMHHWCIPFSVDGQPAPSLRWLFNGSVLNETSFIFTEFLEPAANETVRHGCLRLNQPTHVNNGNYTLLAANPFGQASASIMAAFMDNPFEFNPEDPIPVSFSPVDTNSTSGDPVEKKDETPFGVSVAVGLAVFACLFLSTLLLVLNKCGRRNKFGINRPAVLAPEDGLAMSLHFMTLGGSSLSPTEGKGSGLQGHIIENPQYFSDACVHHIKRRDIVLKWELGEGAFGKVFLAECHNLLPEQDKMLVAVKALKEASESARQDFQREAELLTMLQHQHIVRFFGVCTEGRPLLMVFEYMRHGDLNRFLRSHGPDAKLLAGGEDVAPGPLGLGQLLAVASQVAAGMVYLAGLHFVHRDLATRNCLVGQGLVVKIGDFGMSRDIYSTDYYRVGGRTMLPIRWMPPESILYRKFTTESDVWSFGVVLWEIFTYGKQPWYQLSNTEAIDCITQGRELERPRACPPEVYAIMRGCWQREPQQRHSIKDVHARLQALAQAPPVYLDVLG
BDNF/NT-3 growth factors receptor, sequence (Q16620 whole entry): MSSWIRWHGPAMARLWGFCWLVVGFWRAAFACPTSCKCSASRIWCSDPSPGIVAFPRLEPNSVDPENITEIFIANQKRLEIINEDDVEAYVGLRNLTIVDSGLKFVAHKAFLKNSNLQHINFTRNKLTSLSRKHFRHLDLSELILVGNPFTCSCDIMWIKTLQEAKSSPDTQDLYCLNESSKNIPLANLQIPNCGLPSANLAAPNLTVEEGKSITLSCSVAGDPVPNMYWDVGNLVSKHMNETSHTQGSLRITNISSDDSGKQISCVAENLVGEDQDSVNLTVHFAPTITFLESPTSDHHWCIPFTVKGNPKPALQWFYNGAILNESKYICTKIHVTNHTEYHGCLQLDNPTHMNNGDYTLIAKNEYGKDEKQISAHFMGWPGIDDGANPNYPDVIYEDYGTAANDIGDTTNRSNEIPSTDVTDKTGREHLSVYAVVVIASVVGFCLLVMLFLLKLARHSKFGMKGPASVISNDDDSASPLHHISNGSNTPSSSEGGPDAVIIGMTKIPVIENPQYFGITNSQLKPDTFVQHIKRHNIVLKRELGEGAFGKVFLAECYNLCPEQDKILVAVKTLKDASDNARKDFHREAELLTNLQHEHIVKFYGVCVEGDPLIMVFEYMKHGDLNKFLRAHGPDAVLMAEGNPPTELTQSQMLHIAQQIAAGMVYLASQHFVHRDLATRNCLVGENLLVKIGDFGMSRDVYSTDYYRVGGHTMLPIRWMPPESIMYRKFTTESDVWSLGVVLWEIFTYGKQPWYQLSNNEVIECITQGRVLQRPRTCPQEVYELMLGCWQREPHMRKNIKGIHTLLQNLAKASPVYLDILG

Structure (SMILES) | IC50 [1] [nM] | IC50 [2] [nM] | other results
CN(Cc1ccc2[nH]nc(/C=C/c3ccccn3)c2c1)c1cc(F)cc(F)c1 | 12 | 42.5 | 
Cc1cc(F)cc(CNc2ccc3[nH]nc(/C=C/c4ccccn4)c3c2)c1 | 10.4 | 50.1 | 
Fc1ccc(CNc2ccc3[nH]nc(/C=C/c4ccccn4)c3c2)cc1 | 49.3 | 78.9 | 
O=C(Nc1cc(F)cc(F)c1)c1ccc2[nH]nc(/C=C/c3ccccn3)c2c1 | > 1000 | > 1000 | 
Fc1cc(F)cc(-c2ccc3[nH]nc(/C=C/c4ccccn4)c3c2)c1 | 254 | 729 | 
Fc1ccccc1CNc1ccc2[nH]nc(/C=C/c3ccccn3)c2c1 | 8.8 | 36.2 | 
Fc1cc(CNc2ccc3[nH]nc(/C=C/c4ccccn4)c3c2)cc(C(F)(F)F)c1 | 76.3 | 245 | 
Fc1cc(F)cc(Nc2ccc3[nH]nc(/C=C/c4ccccn4)c3c2)c1 |  | 30.7 | 
O=C(Nc1ccc2[nH]nc(/C=C/c3ccccn3)c2c1)c1cc(F)cc(F)c1 | 189 | 244 | 
Fc1cc(Br)cc(CNc2ccc3[nH]nc(/C=C/c4ccccn4)c3c2)c1 | 10.4 | 30.6 | 
Fc1cc(F)cc(C#Cc2ccc3[nH]nc(/C=C/c4ccccn4)c3c2)c1 | > 1000 | > 1000 | 
O=C(Nc1cnn2ccc(N3CCC[C@@H]3c3cc(F)ccc3F)nc12)N1CC[C@H](O)C1 [LAROTRECTINIB] |  |  | IC50 (BaF3 [3]): > 10000 nM; IC50 (BaF3 [4]): 16 nM; IC50 (BaF3 [5]): 40 nM; IC50 (BaF3 [6]): 13 nM; IC50 (BaF3 [7]): 539 nM; IC50 (BaF3 [8]): 2240 nM; IC50 (BaF3 [9]): 184 nM; IC50 (BaF3 [10]): 1200 nM; IC50 (BaF3 [11]): 54 nM

The next lines start with results.

IC50 [1] [nM] | IC50 [2] [nM] | Structure (SMILES) | other results
1.5 | 8.3 | Fc1cc(F)cc(CNc2ccc3[nH]nc(/C=C/c4ccccn4)c3c2)c1 | IC50 (BaF3 [3]): 489 nM; IC50 (BaF3 [4]): 35 nM; IC50 (BaF3 [5]): 34 nM; IC50 (BaF3 [6]): 14 nM
13.2 | 1.2 | Fc1cc(F)cc(COc2ccc3[nH]nc(/C=C/c4ccccn4)c3c2)c1 | IC50 (BaF3 [4]): 133 nM; IC50 (BaF3 [5]): 169 nM; IC50 (BaF3 [6]): 118 nM
23.9 | 4.8 | Fc1cc(F)cc(Sc2ccc3[nH]nc(/C=C/c4ccccn4)c3c2)c1 | 
23.3 | 4 | Fc1cc(F)cc(Oc2ccc3[nH]nc(/C=C/c4ccccn4)c3c2)c1 | 
20.9 | 7.2 | Fc1cc(F)cc(OCc2ccc3[nH]nc(/C=C/c4ccccn4)c3c2)c1 | 
5.7 | 4.9 | Fc1cccc(CNc2ccc3[nH]nc(/C=C/c4ccccn4)c3c2)c1 | 
2 | 15.4 | Fc1cc(Cl)cc(CNc2ccc3[nH]nc(/C=C/c4ccccn4)c3c2)c1 | 
29 | 8 | CN(Cc1cc(F)cc(F)c1)c1ccc2[nH]nc(/C=C/c3ccccn3)c2c1 | 
3.1 | 26.7 | COc1cc(F)cc(CNc2ccc3[nH]nc(/C=C/c4ccccn4)c3c2)c1 | 
40.6 | 23.6 | CN(c1cc(F)cc(F)c1)c1ccc2[nH]nc(/C=C/c3ccccn3)c2c1 | 
10.6 | 1.1 | C(=C\c1n[nH]c2ccc(NCc3ccccc3)cc12)/c1ccccn1 | 
3.5 | 17.7 | N#Cc1cc(F)cc(CNc2ccc3[nH]nc(/C=C/c4ccccn4)c3c2)c1 | 
3.7 | 8.5 | Fc1cc(F)cc(CCc2ccc3[nH]nc(/C=C/c4ccccn4)c3c2)c1 | 
7.6 | 1.3 | Fc1cc(F)cc(Cc2ccc3[nH]nc(/C=C/c4ccccn4)c3c2)c1 | IC50 (BaF3 [4]): 133 nM; IC50 (BaF3 [5]): 161 nM; IC50 (BaF3 [6]): 125 nM
10.4 | 3.5 | Fc1cc(F)cc(NCc2ccc3[nH]nc(/C=C/c4ccccn4)c3c2)c1 | 

Reference: ChEMBL document CHEMBL4765391, “Design, synthesis, and Structure-Activity Relationships (SAR) of 3-vinylindazole derivatives as new selective tropomyosin receptor kinases (Trk) inhibitors” (Eur J Med Chem, 2020)
